PubChem BioAssay AID248 (DTP/NCI, 2004)
Several values for one entry are separate records, joined by “and”; a condition that tells them apart may be missing. Identical values can stand only once. Toxic doses and inconclusive results are not listed. Rule as the data show it: active = T/C of 150% or more; inactive = T/C below 125%.

Tested on: L1210 leukemia ip in BDF1 mice, survival T/C
Assay: NCI In Vivo Anticancer Drug Screen. Data for tumor model L1210 Leukemia (intraperitoneal) in B6D2F1 (BDF1) mice
Settings: endpoint: mean survival time, higher = longer survival
How it was run: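 Each compound was tested against a transplantable tumor grown in mice. The endpoint was survival, with treated animals benchmarked against vehicle controls as a simple ratio.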

[1] = dose: 100.0 mg/kg/injection, schedule: Q04DX002 (ip), vehicle: Klucel (hydroxypropylcellulose) (HPC)
[2] = dose: 200.0 mg/kg/injection, schedule: Q04DX002 (ip), vehicle: Klucel (hydroxypropylcellulose) (HPC)
[3] = dose: 100.0 mg/kg/injection, schedule: Q01DX009 (ip), vehicle: Klucel (hydroxypropylcellulose) (HPC)
[4] = dose: 200.0 mg/kg/injection, schedule: Q01DX009 (ip), vehicle: Klucel (hydroxypropylcellulose) (HPC)
[5] = dose: 100.0 mg/kg/injection, schedule: Q01DX001 (ip), vehicle: saline
[6] = dose: 200.0 mg/kg/injection, schedule: Q01DX001 (ip), vehicle: saline
[7] = dose: 400.0 mg/kg/injection, schedule: Q01DX001 (ip), vehicle: saline
[8] = dose: 25.0 mg/kg/injection, schedule: Q01DX009 (ip), vehicle: Klucel (hydroxypropylcellulose) (HPC)
[9] = dose: 50.0 mg/kg/injection, schedule: Q01DX009 (ip), vehicle: Klucel (hydroxypropylcellulose) (HPC)

Measured: T/C

C#CCSC(=S)OCC
inactive: dose: 100.0 mg/kg/injection, schedule: Q04DX003 (ip), vehicle: other 95 % of control | dose: 200.0 mg/kg/injection, schedule: Q04DX003 (ip), vehicle: other 101 % of control

NC(=O)COc1ccc2ccccc2c1Cl
inactive: [1] 96 % of control | [2] 89 % of control

CN=C(N)c1ccc(N=C(N)c2ccc(N=C(N)c3ccc(NC(=O)Nc4cccc(NC(=O)Nc5ccc(C(N)=Nc6ccc(C(N)=Nc7ccc(C(N)=NC)cc7)cc6)cc5)c4)cc3)cc2)cc1
active: dose: 37.5 mg/kg/injection, schedule: Q01DX001 (ip), vehicle: water 177 % of control and 178 % of control and 187 % of control | dose: 75.0 mg/kg/injection, schedule: Q01DX001 (ip), vehicle: water 265 % of control and 278 % of control and 310 % of control
inactive: dose: 0.25 mg/kg/injection, schedule: Q01DX015 (ip), vehicle: water 109 % of control | dose: 0.5 mg/kg/injection, schedule: Q01DX015 (ip), vehicle: water 113 % of control | dose: 1.0 mg/kg/injection, schedule: Q01DX015 (ip), vehicle: water 121 % of control | dose: 2.0 mg/kg/injection, schedule: Q01DX015 (ip), vehicle: water 124 % of control

C/C(=C\Cl)COC1CCCCO1 (stereo unspecified)
inactive: dose: 100.0 mg/kg/injection, schedule: Q01DX009 (ip), vehicle: acetone 95 % of control | dose: 100.0 mg/kg/injection, schedule: Q04DX003 (ip), vehicle: acetone 101 % of control | dose: 200.0 mg/kg/injection, schedule: Q01DX009 (ip), vehicle: acetone 95 % of control | dose: 200.0 mg/kg/injection, schedule: Q04DX003 (ip), vehicle: acetone 101 % of control | dose: 400.0 mg/kg/injection, schedule: Q04DX003 (ip), vehicle: acetone 101 % of control

Cc1c[n+]([O-])c(C)cc1N=Nc1ccc(N(C)C)cc1
inactive: dose: 50.0 mg/kg/injection, schedule: Q01DX009 (ip), vehicle: saline with Tween-80 111 % of control | dose: 100.0 mg/kg/injection, schedule: Q01DX009 (ip), vehicle: saline with Tween-80 95 % of control | dose: 100.0 mg/kg/injection, schedule: Q04DX002 (ip), vehicle: saline with Tween-80 89 % of control | dose: 200.0 mg/kg/injection, schedule: Q01DX009 (ip), vehicle: saline with Tween-80 90 % of control | dose: 200.0 mg/kg/injection, schedule: Q04DX002 (ip), vehicle: saline with Tween-80 99 % of control

CN(C)c1ccc2oc(=O)c3ccccc3c2c1
inactive: dose: 50.0 mg/kg/injection, schedule: Q01DX001 (ip), vehicle: carboxymethylcellulose (CMC) 100 % of control | dose: 100.0 mg/kg/injection, schedule: Q01DX001 (ip), vehicle: carboxymethylcellulose (CMC) 92 % of control | dose: 200.0 mg/kg/injection, schedule: Q01DX001 (ip), vehicle: carboxymethylcellulose (CMC) 100 % of control | dose: 400.0 mg/kg/injection, schedule: Q01DX001 (ip), vehicle: carboxymethylcellulose (CMC) 94 % of control

Cc1onc(-c2ccccc2Cl)c1-c1nc2ccccc2c(=O)o1
inactive: [1] 93 % of control | [2] 93 % of control | dose: 400.0 mg/kg/injection, schedule: Q04DX002 (ip), vehicle: Klucel (hydroxypropylcellulose) (HPC) 96 % of control

CCC1(O)C(=O)OCc2c1ccnc2Cl (stereo unspecified)
inactive: dose: 50.0 mg/kg/injection, schedule: Q04DX003 (ip), vehicle: saline 105 % of control | dose: 100.0 mg/kg/injection, schedule: Q04DX003 (ip), vehicle: saline 116 % of control | dose: 200.0 mg/kg/injection, schedule: Q04DX003 (ip), vehicle: saline 103 % of control

CC(=O)Nc1ccc(S(=O)(=O)N(C)Cc2ccccc2)cc1
inactive: [3] 94 % of control | [4] 102 % of control | dose: 400.0 mg/kg/injection, schedule: Q01DX009 (ip), vehicle: Klucel (hydroxypropylcellulose) (HPC) 107 % of control

Cc1ccc(CNC(=O)Nc2ccccc2)c(C)c1
inactive: dose: 100.0 mg/kg/injection, schedule: Q01DX009 (ip), vehicle: other 103 % of control | dose: 200.0 mg/kg/injection, schedule: Q01DX009 (ip), vehicle: other 91 % of control | dose: 400.0 mg/kg/injection, schedule: Q01DX009 (ip), vehicle: other 101 % of control

CC(=O)Nc1ccc2c(c1)C(c1ccccc1)=NCC(=O)N2
inactive: [5] 103 % of control | dose: 100.0 mg/kg/injection, schedule: Q01DX Z (ip), vehicle: carboxymethylcellulose (CMC) 107 % of control | dose: 100.0 mg/kg/injection, schedule: Q01DX Z (ip), vehicle: methylcellulose (MC) 100 % of control | dose: 150.0 mg/kg/injection, schedule: Q01DX Z (ip), vehicle: carboxymethylcellulose (CMC) 112 % of control and 114 % of control | dose: 150.0 mg/kg/injection, schedule: Q01DX Z (ip), vehicle: methylcellulose (MC) 103 % of control | [6] 103 % of control | dose: 225.0 mg/kg/injection, schedule: Q01DX Z (ip), vehicle: carboxymethylcellulose (CMC) 100 % of control | dose: 225.0 mg/kg/injection, schedule: Q01DX Z (ip), vehicle: methylcellulose (MC) 107 % of control | dose: 337.0 mg/kg/injection, schedule: Q01DX Z (ip), vehicle: carboxymethylcellulose (CMC) 97 % of control | dose: 337.0 mg/kg/injection, schedule: Q01DX Z (ip), vehicle: methylcellulose (MC) 109 % of control | [7] 91 % of control | dose: 600.0 mg/kg/injection, schedule: Q01DX001 (ip), vehicle: saline 98 % of control | dose: 1200.0 mg/kg/injection, schedule: Q01DX001 (ip), vehicle: saline 120 % of control | dose: 2400.0 mg/kg/injection, schedule: Q01DX001 (ip), vehicle: saline 120 % of control

NC1=NC(=S)C2N=C(N=Nc3ccc(C(=O)NC(CCC(=O)O)C(=O)O)cc3)N=C2N1 (stereo unspecified)
active: dose: 1.56 mg/kg/injection, schedule: Q01DX009 (ip), vehicle: Klucel (hydroxypropylcellulose) (HPC) 156 % of control and 177 % of control and 194 % of control | dose: 3.13 mg/kg/injection, schedule: Q01DX009 (ip), vehicle: Klucel (hydroxypropylcellulose) (HPC) 189 % of control
inactive: [8] 120 % of control | [9] 121 % of control | dose: 50.0 mg/kg/injection, schedule: Q04DX003 (ip), vehicle: Klucel (hydroxypropylcellulose) (HPC) 114 % of control | [3] 88 % of control

CC(C)=CCC/C(C)=C/CN1C(=O)CN(C)C1=O
inactive: dose: 50.0 mg/kg/injection, schedule: Q01DX009 (ip), vehicle: saline 98 % of control | [5] 100 % of control | dose: 100.0 mg/kg/injection, schedule: Q01DX009 (ip), vehicle: saline 101 % of control | [6] 103 % of control | dose: 200.0 mg/kg/injection, schedule: Q01DX009 (ip), vehicle: saline 98 % of control | [7] 100 % of control

CC(=O)CCCC(C)C1CCC2[C@H]3CC=C4C[C@H](O)CC[C@@]4(C)C3CC[C@@]12C (stereo partly specified)
inactive: [9] 96 % of control | [3] 100 % of control | [4] 102 % of control

NCC12CC3CC(CC(C3)C1)C2
inactive: [8] 107 % of control | dose: 25.0 mg/kg/injection, schedule: Q04DX002 (ip), vehicle: Klucel (hydroxypropylcellulose) (HPC) 111 % of control | [9] 93 % of control | dose: 50.0 mg/kg/injection, schedule: Q04DX002 (ip), vehicle: Klucel (hydroxypropylcellulose) (HPC) 107 % of control | [3] 90 % of control | [1] 96 % of control and 104 % of control
